According to paper PMC8954547, “Nonpeptidic Z360-Analogs Tagged with Trivalent Radiometals as Anti-CCK2R Cancer Theranostic Agents: A Preclinical Study” (Pharmaceutics, 2022):

Key:
[1] = Radioligand stability in mice (radio-HPLC of blood and urine); type: in vivo; conditions: mean ± SD
In short: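 Male Swiss albino mice (n=3) given 2.5–3 nmol radioligand i.v. via tail vein in saline/EtOH 9/1. Blood at 5 min and urine at 30 min pi, EDTA-treated on ice, MeCN-deproteinised, analysed by radio-RP-HPLC; value is mean percent intact radioligand ± SD.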

[2] = system: HEK293-CCK2i4svR cells; assay: Radioligand uptake and internalization in HEK293-CCK2i4svR cells; type: cell-based, human
In short: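 Cells incubated at 37 °C with 250 fmol radioligand in DMEM/1% FBS for 1 h ([111In]In-GAS1/2/3 also 15, 30 min, 2 h). Acid wash (glycine pH 2.8) gave membrane-bound and 1 N NaOH lysis gave internalized fractions, gamma-counted. Specific values (minus 1 µM DG2 nonspecific) as % of added activity per well.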

Compound: CC(C)(C)C(=O)CN1C(=O)[C@H](NC(=O)Nc2cccc(C(=O)NCCOCCOCCOCCNC(=O)[C@H](CCC(=O)O)NC(=O)CCC(C(=O)O)N3CCN(CC(=O)[O-])CCN(CC(=O)[O-])CCN(CC(=O)[O-])CC3)c2)CN(C2CCCCC2)c2ccccc21.[177Lu+3] (stereo in doubt) [[^177Lu]Lu-GAS3]
- Intact radioligand in blood ([1]; mice blood collected 5 min pi): 95.8 ± 2.0 (3) %
- Intact radioligand in urine ([1]; mice urine collected 30 min pi): 88.1 ± 0.4 (3) %
- Internalized to membrane-bound ratio [2]: 2.8
- Cell uptake (internalized + membrane-bound) ([2]; 1 h 37 °C, specific, of total added activity): 7.65 ± 1.31%
